For ten compounds, IC50 results are on record in ChEMBL document CHEMBL4602664, “Chrysosporazines F-M: P-Glycoprotein Inhibitory Phenylpropanoid Piperazines from an Australian Marine Fish Derived Fungus, Chrysosporium sp. CMB-F294” (J Nat Prod, 2020).

pIC50: −log10 of the molar value. Bounds are passed on as bounds.

In one experiment the test system is SW-620. The experiment in a line: Antiproliferative activity against human SW620 cells assessed as reduction in cell viability after 48 hrs by MTT assay. In kind it is functional, cell-based. Particulars: SW-620, 48 h.
In a further experiment the test system is Escherichia coli. The experiment in a line: Antibacterial activity against Escherichia coli ATCC 11775 assessed as reduction in microbial growth after 24 hrs by spectrophotometric method. It counts as functional, organism-based. As to conditions: ATCC 11775, 24 h.
The test system of the next experiment is Staphylococcus aureus. As to the kind of experiment: Antibacterial activity against Staphylococcus aureus ATCC 25923 assessed as reduction in microbial growth after 24 hrs by spectrophotometric method. It counts as functional, organism-based. Particulars: ATCC 25923, 24 h.
Another experiment concerns Candida albicans. As to the kind of experiment: Antifungal activity against Candida albicans ATCC 10231 assessed as reduction in microbial growth after 48 hrs by spectrophotometric method. Particulars: ATCC 10231, 48 h. It counts as functional, organism-based.
The next experiment has as its system SW620/AD300. The experiment in a line: Antiproliferative activity against human SW620/AD300 cells assessed as reduction in cell viability after 48 hrs by MTT assay. As to conditions: SW620/AD300, 48 h. In kind it is functional, cell-based. On the technique in general: Formazan colour is commonly taken as a measure of viable cells.

Consider `COc1cc(C[C@H]2CN3C(=O)[C@@]4(O[C@H]4c4ccccc4)[C@H](c4cc(OC)c5c(c4)OCO5)[C@H]3CN2C(C)=O)cc2c1OCO2`, for which the negative logarithm of the IC50 (pIC50) in the experiment with SW-620, with Escherichia coli, in the experiment on Staphylococcus aureus and in the experiment with Candida albicans was less than 4.52 in each case.
With `COc1cc([C@H]2/C(=C\c3ccccc3)C(=O)N3C[C@H](Cc4ccccc4)N(C(C)=O)C[C@H]23)cc2c1OCO2`, the pIC50 in the experiment on SW-620, in the experiment with Escherichia coli, in the experiment with Staphylococcus aureus and with Candida albicans was less than 4.52 in each case.
Take `COc1cccc2c1C(=O)c1c(O)c3c(c(O)c1C2=O)C[C@@](O)(C(=O)CO)C[C@@H]3O[C@H]1C[C@H](N)[C@H](O)[C@H](C)O1` [DOXORUBICIN]: the results for the negative logarithm of the IC50 (pIC50) in the experiment on SW620/AD300 and in the experiment with SW-620 were 5.31 and 6.96, respectively.
For `COc1c2c(cc3c1[C@H](c1ccccc1)[C@@]1(O)C(=O)N4C[C@H](Cc5ccccc5)N(C(C)=O)C[C@@H]4[C@@H]31)OCO2`, the pIC50 in the experiment with SW-620, in the experiment on Escherichia coli, with Staphylococcus aureus and in the experiment on Candida albicans was less than 4.52 each time.
In the case of `COc1c2c(cc3c1[C@H](c1ccccc1)[C@H]1C(=O)N4C[C@H](Cc5ccccc5)N(C(C)=O)C[C@@H]4[C@@H]31)OCO2`, the pIC50 in the experiment with SW-620, in the experiment with Escherichia coli, in the experiment on Staphylococcus aureus and in the experiment with Candida albicans was less than 4.52 in each case.
As for `COc1cc(C[C@H]2CN3C[C@]4(O)[C@@H](c5ccccc5)c5c(cc6c(c5OC)OCO6)[C@@H]4[C@H]3CN2C(C)=O)cc2c1OCO2`, the negative-log IC50 (pIC50) with SW-620, with Escherichia coli, in the experiment with Staphylococcus aureus and with Candida albicans was less than 4.52 in each case.
As for `COc1cc([C@@H]2[C@H]3CN(C(C)=O)[C@@H](Cc4ccccc4)CN3C(=O)[C@@]23O[C@H]3c2ccccc2)cc2c1OCO2`, the negative logarithm of the IC50 (pIC50) in the experiment on SW-620, in the experiment with Escherichia coli, in the experiment on Staphylococcus aureus and with Candida albicans was less than 4.52 throughout.
Consider `COc1cc(C[C@H]2CN3C[C@@H]4[C@@H](c5ccccc5)c5c(cc6c(c5OC)OCO6)[C@@H]4[C@H]3CN2C(C)=O)cc2c1OCO2`, for which the pIC50 in the experiment with SW-620, in the experiment on Escherichia coli, in the experiment on Staphylococcus aureus and in the experiment with Candida albicans was less than 4.52 in each case.
With `COc1cc(C[C@H]2CN3C(=O)/C(=C/c4ccccc4)[C@H](c4cc(OC)c5c(c4)OCO5)[C@H]3CN2C(C)=O)cc2c1OCO2`, the pIC50 with SW-620, with Escherichia coli, with Staphylococcus aureus and in the experiment on Candida albicans was less than 4.52 each time.
On to `COc1ccc(CCN(C)CCCC(C#N)(c2ccc(OC)c(OC)c2)C(C)C)cc1OC` (stereo not given), for which the negative logarithm of the IC50 (pIC50) (commonly −log10 of the IC50, conventionally taken in molar units) in the experiment on SW620/AD300 was less than 4.52.
